Assay results: US20260272944A1, “PYRIDO[3,4-D]PYRIMIDINONE AND PYRIMDLLNE ARYL HYDROCARBON RECEPTOR ANTAGONISTS AND USES THEREOF” (ALLIANTHERA (SUZHOU) BIOPHARMACEUTICAL CO., LTD., priority 2023, published 2026)

Biological target: T1, Human Aryl Hydrocarbon Receptor (AhR) (Homo sapiens, UniProt P35869)
T1 construct: purchased INDIGO Bioscience IB06001-32; host or cells: AhR Reporter Cell (the kit's proprietary reporter cells)
T1 sequence (P35869 11-848): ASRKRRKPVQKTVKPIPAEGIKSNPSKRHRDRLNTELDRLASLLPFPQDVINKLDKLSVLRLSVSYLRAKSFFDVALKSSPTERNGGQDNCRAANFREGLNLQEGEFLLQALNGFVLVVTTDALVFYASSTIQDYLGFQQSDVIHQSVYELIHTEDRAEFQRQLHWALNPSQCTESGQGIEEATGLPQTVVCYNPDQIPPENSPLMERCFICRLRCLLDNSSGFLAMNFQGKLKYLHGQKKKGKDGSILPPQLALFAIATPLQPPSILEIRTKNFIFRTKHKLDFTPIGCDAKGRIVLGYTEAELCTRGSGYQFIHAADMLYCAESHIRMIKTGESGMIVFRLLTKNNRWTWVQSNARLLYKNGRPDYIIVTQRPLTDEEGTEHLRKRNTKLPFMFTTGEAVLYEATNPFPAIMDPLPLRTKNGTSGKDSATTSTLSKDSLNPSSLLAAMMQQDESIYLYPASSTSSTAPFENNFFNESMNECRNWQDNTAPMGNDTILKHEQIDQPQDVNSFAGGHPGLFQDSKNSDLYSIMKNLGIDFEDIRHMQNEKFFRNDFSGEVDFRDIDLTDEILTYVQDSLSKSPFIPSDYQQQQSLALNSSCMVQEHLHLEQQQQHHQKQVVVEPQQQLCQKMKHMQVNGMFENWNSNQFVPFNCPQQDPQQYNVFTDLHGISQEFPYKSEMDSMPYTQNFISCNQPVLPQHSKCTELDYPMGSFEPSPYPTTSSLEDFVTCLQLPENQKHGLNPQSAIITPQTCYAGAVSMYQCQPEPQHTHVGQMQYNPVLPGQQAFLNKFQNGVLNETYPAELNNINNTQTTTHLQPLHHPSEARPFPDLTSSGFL
Assay: AhR reporter assay (Human Aryl Hydrocarbon Receptor (AhR) Reporter Assay System, INDIGO Bioscience)
Type: cell-based
Conditions: AHR inhibition at 10 nM test compound; AhR Reporter Cells activated with 200 μM kynurenic acid, 24 hours; firefly luciferase; normalized by positive and negative controls
Procedure: The AhR reporter assay was performed following the protocol of the Human Aryl Hydrocarbon Receptor (AhR) Reporter Assay System (INDIGO Bioscience, #IB06001-32). AhR Reporter Cell was thawed and pre-incubated in Cell Recovery Medium (CRM) for 6 hours. The media was then removed and the cells were incubated with Compound Screening Medium (CSM) supplemented with 200 μM kynurenic acid for 24 hours in the absence (negative control) or presence of 10 nM test compounds. For positive inhibition control, cells activated with 200 μM kynurenic acid were incubated in the presence of literature AHR antagonists; alternatively un-activated cells were used as positive inhibition control. Following 24 hours incubation, the media was removed and Luciferase Detection Reagent (LDR) added. The firefly luciferase activity was quantified using a plate reader. Results were normalized by positive and negative controls.
The results of AHR inhibition at 10 nM for compounds as disclosed herein is reported in the below table.

Row | SMILES | inhibition at 0.01 µM [%]
1 | C[C@@H](CO)NC(=O)c1cc(-c2ccc(NC(=O)CN3CCOCC3)cc2)nc(-c2cnn(C)c2)n1 [Compound 98] | 5
2 | C[C@@H](CO)NC(=O)c1cc(-c2ccc(-c3ccc(=O)n(C)c3)cc2)nc(-c2cnn(C)c2)n1 [Compound 112] | 10
3 | C[C@@H](CO)n1cnc2c(-c3cnn(C)c3)nc(-c3ccc(-c4cnc(N)nc4)nc3)cc2c1=O [Compound 119] | 2
4 | C[C@@H](CO)n1cnc2c(-c3cnn(C)c3)nc(-c3ccc(C(=O)N4CCN(S(C)(=O)=O)CC4)cc3)cc2c1=O [Compound 120] | -10
5 | C[C@@H](CO)n1cnc2c(-c3cnn(C)c3)nc(N3CCN(c4ncccn4)CC3)cc2c1=O [Compound 121] | 4
6 | C[C@@H](CO)n1cnc2c(-c3cnn(C)c3)nc(N3CCN(c4ccc(F)cc4F)CC3)cc2c1=O [Compound 122] | 46
7 | C[C@@H](CO)n1cnc2c(-c3cnn(C)c3)nc(N3CCN(c4ccccc4)CC3)cc2c1=O [Compound 123] | 91
8 | C[C@@H](CO)n1cnc2c(-c3cnn(C)c3)nc(N3Cc4cccnc4C3)cc2c1=O [Compound 124] | 77
9 | C[C@@H](CO)n1cnc2c(-n3nc(N)ccc3=O)nc(-c3cncc(F)c3)cc2c1=O [Compound 128] | 4
10 | C[C@@H](CO)n1cnc2c(-n3cncc3C3CC3)nc(-c3cncc(F)c3)cc2c1=O [Compound 129] | 7

Results, then the compound that gave them:

Row | inhibition at 0.01 µM [%] | SMILES
11 | 4 | C[C@@H](CO)NC(=O)c1cc(N2CCN(c3ccc(F)cc3)C[C@@H]2C)nc(-c2cnn(C)c2)n1 [Compound 77]
12 | 21 | C[C@@H](CO)NC(=O)c1cc(N2Cc3cccc(F)c3C2)nc(-c2cnn(C)c2)n1 [Compound 88]
13 | 1 | C[C@@H](CO)NC(=O)c1cc(-c2ccc(N3CCOCC3)nc2)nc(-c2cnn(C)c2)n1 [Compound 90]
14 | 7 | C[C@@H](CO)NC(=O)c1cc(-c2ccc(N3CCN(S(C)(=O)=O)CC3)cc2)nc(-c2cnn(C)c2)n1 [Compound 91]
15 | 99 | C[C@@H](CO)NC(=O)c1cc(N2Cc3ccc(F)cc3C2)nc(-c2cnn(C)c2)n1 [Compound 93]
16 | 10 | Cc1cc(-c2cc(C(=O)N[C@@H](C)CO)nc(-c3cnn(C)c3)n2)ccc1N1CCOCC1 [Compound 96]
17 | -3 | C[C@@H](CO)NC(=O)c1cc(-c2ccc(C(=O)N3CCC(N)C3)cc2)nc(-c2cnn(C)c2)n1 (stereo partly drawn) [Compound 105]
18 | 46 | C[C@@H](CO)NC(=O)c1cc(N2Cc3cccnc3C2)nc(-c2cnn(C)c2)n1 [Compound 117]
19 | 23 | C[C@H](CO)NC(=O)c1cc(N2Cc3ccccc3C2)nc(-c2cnn(C)c2)n1 [Compound 125]
20 | 5 | C[C@H](NC(=O)c1cc(N2Cc3ccccc3C2)nc(-c2cnn(C)c2)n1)C(=O)O [Compound 126]
21 | 52 | C[C@@H](CNS(=O)(=O)C1CC1)NC(=O)c1cc(N2Cc3ccccc3C2)nc(-c2cnn(C)c2)n1 [Compound 127]
